From paper PMC6556873, “Rapid Covalent-Probe Discovery by Electrophile-Fragment Screening” (Journal of the American Chemical Society, 2019)
Read-outs that look alike come from different tables or passages of the source.

Experiments:
[1] = in vitro; set-up: species or system HB2, HEK293; conditions: human, ccd841 cells
[2] = molecular target: T1, BSA (Bos taurus, UniProt P02769); set-up: Intact protein LC/MS covalent labelling, fragments in pools of five, 200 uM each, 4 °C; conditions: 24 h, 4 °C, pool of five; 200 µM; covalent
T1 construct: gene ALB
T1 sequence (P02769 whole entry, the tested form may be a part): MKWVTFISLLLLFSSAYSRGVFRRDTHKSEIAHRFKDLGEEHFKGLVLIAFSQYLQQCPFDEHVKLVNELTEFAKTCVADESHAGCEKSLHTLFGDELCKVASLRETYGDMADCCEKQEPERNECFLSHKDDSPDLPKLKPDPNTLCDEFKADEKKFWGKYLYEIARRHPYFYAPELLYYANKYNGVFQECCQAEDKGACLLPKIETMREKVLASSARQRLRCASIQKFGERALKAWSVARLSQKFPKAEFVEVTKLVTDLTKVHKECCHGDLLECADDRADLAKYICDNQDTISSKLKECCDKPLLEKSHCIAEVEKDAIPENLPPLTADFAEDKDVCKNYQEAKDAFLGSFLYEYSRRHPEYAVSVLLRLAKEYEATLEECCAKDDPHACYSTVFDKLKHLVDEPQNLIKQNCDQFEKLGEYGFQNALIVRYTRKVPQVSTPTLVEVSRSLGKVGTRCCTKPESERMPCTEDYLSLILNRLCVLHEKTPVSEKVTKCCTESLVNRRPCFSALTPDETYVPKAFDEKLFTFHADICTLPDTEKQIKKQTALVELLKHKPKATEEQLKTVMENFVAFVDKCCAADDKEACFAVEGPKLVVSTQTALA

[3] = molecular target: T2, OTUB2 (OTUB2A) (Homo sapiens, UniProt Q96DC9); set-up: Intact protein LC/MS covalent labelling, fragments in pools of five, 200 uM each, 4 °C; conditions: 24 h, 4 °C, pool of five; 200 µM; covalent
T2 construct: full length residues 1-234, E. coli BL21(DE3)-R3, His tag removed by TEV, construct 27312 Da
T2 sequence (Q96DC9 1-234): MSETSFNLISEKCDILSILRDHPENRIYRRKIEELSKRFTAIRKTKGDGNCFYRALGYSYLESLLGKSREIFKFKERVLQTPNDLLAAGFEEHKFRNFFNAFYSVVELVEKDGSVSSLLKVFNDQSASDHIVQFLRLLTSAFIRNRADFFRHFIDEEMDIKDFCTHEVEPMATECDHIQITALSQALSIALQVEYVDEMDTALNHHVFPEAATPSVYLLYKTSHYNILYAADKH

[4] = molecular target: T3, NUDT7 (Homo sapiens, UniProt P0C024); set-up: Intact protein LC/MS covalent labelling, fragments in pools of five, 200 uM each, 4 °C; conditions: 24 h, 4 °C, pool of five; 200 µM; covalent
T3 construct: residues 14-235, E. coli, pNIC28-Bsa4, N-terminal His6 tag removed by TEV, construct 26672 Da
T3 sequence (P0C024 14-235): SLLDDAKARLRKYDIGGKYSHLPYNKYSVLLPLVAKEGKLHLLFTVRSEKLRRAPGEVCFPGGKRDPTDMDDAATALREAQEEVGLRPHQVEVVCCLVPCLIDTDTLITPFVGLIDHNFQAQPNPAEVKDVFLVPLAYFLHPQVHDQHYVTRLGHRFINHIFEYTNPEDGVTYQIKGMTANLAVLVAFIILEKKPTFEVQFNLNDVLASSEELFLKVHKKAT

[5] = molecular target: T4, PCAF (Homo sapiens, UniProt Q92831); set-up: Intact protein LC/MS covalent labelling, fragments in pools of five, 200 uM each, 4 °C; conditions: 24 h, 4 °C, pool of five; 200 µM; covalent
T4 construct: gene KAT2B
T4 sequence (Q92831 whole entry, the tested form may be a part): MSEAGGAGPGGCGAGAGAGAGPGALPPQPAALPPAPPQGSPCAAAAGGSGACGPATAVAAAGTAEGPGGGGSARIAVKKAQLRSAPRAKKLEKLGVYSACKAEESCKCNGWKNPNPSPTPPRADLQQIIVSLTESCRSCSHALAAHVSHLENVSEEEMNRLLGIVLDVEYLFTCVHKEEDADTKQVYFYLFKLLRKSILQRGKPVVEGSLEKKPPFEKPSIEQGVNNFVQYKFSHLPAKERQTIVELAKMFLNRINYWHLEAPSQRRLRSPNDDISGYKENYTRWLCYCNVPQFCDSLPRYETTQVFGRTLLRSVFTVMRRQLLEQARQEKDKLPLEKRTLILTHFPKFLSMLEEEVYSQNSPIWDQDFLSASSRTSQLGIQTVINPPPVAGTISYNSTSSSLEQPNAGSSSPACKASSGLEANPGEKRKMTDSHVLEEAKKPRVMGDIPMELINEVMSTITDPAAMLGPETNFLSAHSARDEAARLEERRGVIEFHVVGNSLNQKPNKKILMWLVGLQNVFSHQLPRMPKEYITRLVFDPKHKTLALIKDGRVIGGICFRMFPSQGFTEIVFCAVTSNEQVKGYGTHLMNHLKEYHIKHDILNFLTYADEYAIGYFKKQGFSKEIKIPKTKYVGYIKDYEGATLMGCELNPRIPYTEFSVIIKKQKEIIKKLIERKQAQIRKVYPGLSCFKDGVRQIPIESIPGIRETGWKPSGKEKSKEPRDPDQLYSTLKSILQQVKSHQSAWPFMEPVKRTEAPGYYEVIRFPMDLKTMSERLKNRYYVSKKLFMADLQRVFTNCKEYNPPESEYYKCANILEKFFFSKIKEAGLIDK

[6] = in vitro; set-up: species or system CCD841, HEK293; conditions: human, hb2 cells, read-out: HB-2 Cells Viability (%)
[7] = in vitro; set-up: species or system HB2, CCD841; conditions: human, hek293 cells

BSA [2] | OTUB2 [3] | NUDT7 [4] | PCAF [5] | Structure (SMILES) | viability at 48 h, 10 µM [1] | viability at 48 h, 10 µM [6] | viability at 48 h, 10 µM [7]
0 | 0 | 0.33 | 0 | N#Cc1c(NC(=O)CCl)sc2c1CCCCC2 [PCM-0102286] | 73.9% | 44.3% | 39.9%
0 | 0.29 | 0 | 0 | Cl.O=C(CCl)N1CCN(Cc2cccc3ccccc23)CC1 [PCM-0102287] | 21.7% | 9.4% | 19.9%
0 | 0 | 0.06 | 0 | O=C(CCl)Nc1cc(Cl)ccc1Cl [PCM-0102288] | 70.8% | 40.7% | 38.4%
0 | 0 | 0 | 0 | O=C1CN(C(=O)CCl)c2ccc(C(F)(F)F)cc2N1 [PCM-0102289] | 96.4% | 89.3% | 94.7%
0 | 0 | 0.12 | 0 | O=C(CCl)NC1CS(=O)(=O)CC1Cl (stereo not drawn) [PCM-0102291] | 76.3% | 99.6% | 91.6%
0 | 0.24 | 0 | 0 | CC1CCCCC1NC(=O)NC(=O)CCl (stereo not drawn) [PCM-0102292] | 69% | 52.8% | 48.6%
0 | 0 | 0.89 | 0 | O=C(CCl)Nc1nc2ccc(F)cc2s1 [PCM-0102294] | 62.7% | 53% | 76.7%
0 | 0.06 | 0.46 | 0 | O=C(CCl)N1N=C(c2cccs2)CC1c1ccco1 (stereo not drawn) [PCM-0102295] | 7.9% | 5% | 1.4%
0 | 0.38 | 0.54 | 0 | Cn1nc(-c2ccc(Cl)cc2)cc1NC(=O)CCl [PCM-0102296] | 4.5% | 1.6% | 0.5%
0 | 0.67 | 0.27 | 0 | O=C(CCl)Nc1cc2c(cc1Br)OCCO2 [PCM-0102299] | 62.8% | 15.8% | 12.6%
0 | 0.83 | 0.11 | 0 | CCc1cc(C(=O)NNC(=O)CCl)sc1C [PCM-0102300] | 74.3% | 45.9% | 75.8%
0 | 0.07 | 0 | 0 | N#CC1(N2CCN(C(=O)CCl)CC2)CCCCC1 [PCM-0102303] | 107% | 103% | 91.6%
0.13 | 0.59 | 0 | 0 | Cc1cc(CNC(=O)CCl)ccc1F [PCM-0102305] | 80.7% | 85.5% | 57.8%
0 | 0 | 0 | 0 | O=C(CCl)N1CCN(C(=O)c2cccs2)CC1 [PCM-0102306] | 63.6% | 39.9% | 12.9%
0 | 0 | 0 | 0 | O=C(CCl)Nc1ccccc1C(=O)O [PCM-0102307] | 96.5% | 105% | 78.8%
0.11 | 0.1 | 0.17 | 0 | O=C(CCl)NC(=O)Nc1ccc(Br)cc1 [PCM-0102308] | 89.9% | 78.8% | 71.6%
0 | 0 | 0.15 | 0 | O=C(CCl)Nc1ccccc1Br [PCM-0102312] | 89.7% | 90.8% | 92.9%
0 | 0 | 0.11 | 0 | O=C(CCl)N(C1CCCC1)C1CCS(=O)(=O)C1 (stereo not drawn) [PCM-0102313] | 65.9% | 64.5% | 42.7%
0 | 0.36 | 0.28 | 0 | O=C(CCl)Nc1ccc(Cl)c([N+](=O)[O-])c1 [PCM-0102316] | 1% | 0.4% | 1.1%
0 | 0.24 | 0 | 0 | Cc1ccc(NC(=O)CCl)cc1 [PCM-0102320] | 63.2% | 29.1% | 8.7%
0 | 0 | 0 | 0 | O=C(CCl)Nc1cc(C(F)(F)F)ccc1N1CCCC1 [PCM-0102321] | 116% | 104% | 110%
0 | 0.17 | 0.07 | 0 | O=C(CCl)Nc1ccc(C(F)(F)F)cc1 [PCM-0102323] | 53.2% | 11.1% | 5.5%
0 | 0 | 0.12 | 0 | COc1ccc2c(c1)CCCN2C(=O)CCl [PCM-0102325] | 40.2% | 7.5% | 1.8%
0 | 0.06 | 0 | 0 | O=C(CCl)Nc1ncc(Br)s1 [PCM-0102326] | 47.7% | 38% | 23%
0 | 0 | 0.13 | 0 | O=C(CCl)N1CCN(S(=O)(=O)c2cccc(F)c2)CC1 [PCM-0102327] | 45.3% | 5.2% | 8.1%
0.24 | 0.31 | 0 | 0 | O=C(CCl)Nc1ccc(F)c(F)c1 [PCM-0102328] | 30.4% | 14.3% | 1.4%
0 | 0 | 0 | 0 | O=C(CCl)Nc1cccc2c1N=S=N2 [PCM-0102329] | 50.1% | 38.2% | 19.9%
